Structures are written as SMILES.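 Compound exposure: 48 hours, 5 concentrations, 96-well plates. GI50 marks 50% less growth. The concentration for full growth arrest is given as TGI.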

14 compounds from PubChem BioAssay (NCI) can be followed below.

Among the test systems are HCT-116 colon; M14 melanoma; MALME-3M melanoma; OVCAR-8 ovarian; SF-268 CNS; UACC-62 melanoma; NCI-H23 lung; HS 578T breast; MDA-MB-435; T-47D breast.
Common to all, as to experiment: NCI anticancer screen, dose series, 48 h

In the case of `C[C@]12CCC(=O)C(OC(=O)c3ccc([N+](=O)[O-])cc3)=C1CCC2=O`, the TGI with HCT-116 colon, with M14 melanoma, with MALME-3M melanoma, in the experiment with OVCAR-8 ovarian, in the experiment with SF-268 CNS and in the experiment with UACC-62 melanoma was > 100 µM in each case.
Consider `N#CC(C(=O)C(=O)Nc1ccccc1)c1ccccc1` (stereo unspecified), for which the TGI in the experiment on HCT-116 colon, in the experiment with M14 melanoma, with MALME-3M melanoma, in the experiment on NCI-H23 lung, in the experiment with SF-268 CNS and in the experiment with UACC-62 melanoma was > 100 µM throughout.
Take `C=C(CO)CC(O)c1cc(OC)ccc1OC` (stereo unspecified): the TGI in the experiment with M14 melanoma, in the experiment on MALME-3M melanoma, with OVCAR-8 ovarian, in the experiment with SF-268 CNS and in the experiment with UACC-62 melanoma was > 100 µM in each case.
As for `Cc1ccc(-c2nc3ccccc3c(=O)n2NCC2(O)OCC(O)C(O)C2O)cc1` (stereo unspecified), the TGI in the experiment with HCT-116 colon, in the experiment with M14 melanoma, in the experiment with MALME-3M melanoma, in the experiment with NCI-H23 lung, in the experiment on OVCAR-8 ovarian and in the experiment on SF-268 CNS was > 100 µM each time. Further, the TGI with UACC-62 melanoma was > 100 µM.
Consider `CC(C)C12Cc3c(ccc4ccccc34)OC1(C)Oc1ccc3ccccc3c1C2` (stereo unspecified), for which the TGI with HCT-116 colon, in the experiment on M14 melanoma, in the experiment with MALME-3M melanoma, with NCI-H23 lung, in the experiment with OVCAR-8 ovarian and in the experiment with SF-268 CNS was > 100 µM throughout. For the same compound, the TGI in the experiment with UACC-62 melanoma was > 100 µM.
Regarding `COC(OC)c1cc2c(cc1C=O)OCO2`, the TGI with HCT-116 colon was > 100 µM; in the experiment on M14 melanoma, > 100 µM; in the experiment with MALME-3M melanoma, 96.5 µM; in the experiment with NCI-H23 lung, > 100 µM; in the experiment with OVCAR-8 ovarian it was > 100 µM; in the experiment on SF-268 CNS, > 100 µM. For the same compound, the TGI with UACC-62 melanoma is > 100 µM.
Take `O=C1/C=C/[C@@H](O)[C@@H]2C[C@@H](O)C[C@H]2/C=C/CCC[C@H](CCc2cccc3ccccc23)O1`: the GI50 with HCT-116 colon was 0.12 µM; with HS 578T breast, 0.779 µM; in the experiment with M14 melanoma it was 0.0492 µM; in the experiment with MALME-3M melanoma, 0.036 µM; in the experiment with MDA-MB-435 it was 0.0394 µM; with NCI-H23 lung, 0.0637 µM. The GI50 with OVCAR-8 ovarian was 0.0491 µM; with SF-268 CNS, 0.0365 µM; with UACC-62 melanoma, 0.038 µM. The TGI was 0.283 µM in the experiment on HCT-116 colon; > 49.2 µM in the experiment with HS 578T breast; 8.58 µM with M14 melanoma; 0.245 µM in the experiment on MALME-3M melanoma; 3.43 µM in the experiment with MDA-MB-435; 1.9 µM in the experiment with NCI-H23 lung. The TGI was 13 µM with OVCAR-8 ovarian, 12.3 µM with SF-268 CNS and 12.9 µM with UACC-62 melanoma.
Take `O=C(O)C[C@@H](Cl)[C@H](NC(=O)OCc1ccccc1)C(=O)O`: the TGI in the experiment on HCT-116 colon, in the experiment with M14 melanoma, with MALME-3M melanoma, with NCI-H23 lung, in the experiment on OVCAR-8 ovarian and in the experiment on SF-268 CNS was > 100 µM throughout. Besides, the TGI in the experiment on UACC-62 melanoma was > 100 µM.
Turning to `Cc1nc2c(c(N3CCCc4ccccc43)n1)CCC2`, the GI50 in the experiment with HCT-116 colon was < 0.01 µM; in the experiment with HS 578T breast it was < 0.01 µM; in the experiment on NCI-H23 lung it was < 0.01 µM; in the experiment on OVCAR-8 ovarian, 0.0112 µM; with SF-268 CNS it was 0.0102 µM; in the experiment with T-47D breast it was 30.7 µM. The GI50 in the experiment with UACC-62 melanoma is < 0.01 µM. Moreover, the TGI in the experiment on HCT-116 colon was 20.6 µM; in the experiment with HS 578T breast, > 100 µM; in the experiment with NCI-H23 lung, > 100 µM; in the experiment with OVCAR-8 ovarian, > 100 µM; with SF-268 CNS it was > 100 µM; in the experiment on T-47D breast it was > 100 µM. Further, the TGI in the experiment on UACC-62 melanoma was > 100 µM.
In the case of `COC(=O)c1ccccc1N(C(=O)c1ccccc1)c1ccccc1C`, the TGI in the experiment with HCT-116 colon is > 100 µM; with M14 melanoma, 73.1 µM; in the experiment on MALME-3M melanoma it was > 100 µM; with NCI-H23 lung it was 79.3 µM; with OVCAR-8 ovarian it was > 100 µM; in the experiment with SF-268 CNS it was > 100 µM. The TGI with UACC-62 melanoma was > 100 µM.
With `N#CC12CCC1C1CCCCC12N1CCSCC1` (stereo unspecified), the TGI with HCT-116 colon was > 100 µM; in the experiment on NCI-H23 lung it was > 10 µM; with OVCAR-8 ovarian, > 100 µM; with UACC-62 melanoma, > 100 µM.
As to `O=S(=O)(CCN1CCOCC1)Nc1cc(-c2ccc3ncnc(Nc4ccc(F)c(Cl)c4)c3c2)cnc1Cl`, the GI50 was 1.38 µM in the experiment with HCT-116 colon; 0.754 µM with M14 melanoma; 0.115 µM with MALME-3M melanoma; 0.712 µM in the experiment with MDA-MB-435; 1.02 µM in the experiment with NCI-H23 lung; 1.67 µM with OVCAR-8 ovarian. Besides, the figures for the GI50 with SF-268 CNS, in the experiment with T-47D breast and with UACC-62 melanoma were 0.407 µM, 0.07 µM and 0.153 µM, respectively. The TGI with HCT-116 colon is 19.2 µM; in the experiment on M14 melanoma it was 9.42 µM; in the experiment with MALME-3M melanoma, 0.93 µM; in the experiment on MDA-MB-435 it was 10.3 µM; in the experiment on NCI-H23 lung it was > 100 µM; in the experiment on OVCAR-8 ovarian, 31.2 µM. For the same compound, the TGI in the experiment with SF-268 CNS was found to be 27.4 µM; in the experiment with T-47D breast it was 0.975 µM; in the experiment with UACC-62 melanoma, 1.09 µM.
For the compound `N.N.N.N.N.NC(=O)[O-].[Co+3].[I-]`, the GI50 with HCT-116 colon, in the experiment with M14 melanoma, with MALME-3M melanoma, in the experiment with NCI-H23 lung, in the experiment with OVCAR-8 ovarian and with SF-268 CNS was > 100 µM in each case. For the same compound, the GI50 with UACC-62 melanoma is > 100 µM. Further, the TGI in the experiment with HCT-116 colon, in the experiment with M14 melanoma, in the experiment with MALME-3M melanoma, in the experiment on NCI-H23 lung, with OVCAR-8 ovarian and with SF-268 CNS was > 100 µM each time. Further, in the experiment on UACC-62 melanoma, the TGI is > 100 µM.
`COc1cc(OC)c(C(=O)c2cccs2)cc1N`: the TGI in the experiment on M14 melanoma, in the experiment on MALME-3M melanoma, with NCI-H23 lung, in the experiment with OVCAR-8 ovarian, in the experiment on SF-268 CNS and in the experiment with UACC-62 melanoma was > 100 µM each time.
